US7449462B2, “Triazole derivatives which inhibit vasopressin antagonistic activity” (Pfizer, Inc., priority 2004, dated 2008)

target: T1, human V1A receptor (Homo sapiens, UniProt P37288); assay: V1A filter binding assay (screen 1.0), [3H]-AVP binding to CHO-hV1A membranes; conditions: [3H]-AVP displacement, membranes of CHO cells stably expressing the human V1A receptor; Cheng-Prusoff
T1 construct: expressed in transfected cells; host or cells: CHO cells (CHO-hV1A line provided by Marc Thibonnier, Case Western Reserve University)
T1 sequence (P37288 whole entry): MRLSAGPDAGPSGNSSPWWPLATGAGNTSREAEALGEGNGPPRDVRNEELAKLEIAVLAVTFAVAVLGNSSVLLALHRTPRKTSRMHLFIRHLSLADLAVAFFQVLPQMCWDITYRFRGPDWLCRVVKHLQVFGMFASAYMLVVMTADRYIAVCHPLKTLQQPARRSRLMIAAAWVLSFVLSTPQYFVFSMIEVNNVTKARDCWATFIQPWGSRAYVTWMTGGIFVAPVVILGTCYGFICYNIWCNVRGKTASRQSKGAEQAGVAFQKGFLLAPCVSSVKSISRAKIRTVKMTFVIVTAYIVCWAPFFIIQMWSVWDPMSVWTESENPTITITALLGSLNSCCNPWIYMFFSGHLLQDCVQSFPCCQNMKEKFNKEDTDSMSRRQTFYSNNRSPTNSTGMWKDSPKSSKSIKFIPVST
Protocol: 1.0 V1A Filter Binding Assay
Receptor binding assays were performed on cellular membranes prepared from CHO cells stably expressing the human V1A receptor, (CHO-hV1A). The CHO-hV1A cell line was kindly provided under a licensing agreement by Marc Thibonnier, Dept. of Medicine, Case Western Reserve University School of Medicine, Cleveland, Ohio. CHO-hV1A cells were routinely maintained at 37° C. in humidified atmosphere with 5% CO2 in DMEM/Hams F12 nutrient mix supplemented with 10% fetal bovine serum, 2 mM L-glutamine, 15 mM HEPES and 400 μg/ml G418. […] Confluent CHO-hV1A cells were washed with phosphate-buffered saline (PBS), harvested into ice cold PBS and centrifuged at 1,000 rpm. Cell pellets were stored at −80° C. until use. Cell pellets were thawed on ice and homogenised in membrane preparation buffer consisting of 50 mM Tris-HCl, pH 7.4, 5 mM MgCl2 and supplemented with a protease inhibitor cocktail, (Roche). […] The remaining pellet was homogenised and centrifuged as before. The supernatants were pooled and centrifuged at 25,000×g for 30 min at 4° C. The pellet was resuspended in freezing buffer consisting of 50 mM Tris-HCl, pH 7.4, 5 mM MgCl2 and 20% glycerol and stored in small aliquots at −80° C. until use. Protein concentration was determined using Bradford reagent and BSA as a standard. […]
Compounds were tested for their effects on [^3H]-AVP binding to CHO-hV1A membranes, (^3H-AVP; specific activity 65.5 Ci/mmol; NEN Life Sciences). […] The plates were sealed and counted on a TopCount Microplate Scintillation Counter (Packard Instruments). […] The radioligand binding data was analysed using a four parameter logistic equation with the min forced to 0%. […] Specific binding was calculated by subtracting the mean NSB cpm from the mean Total cpm. […] The inhibitory dissociation constant (Ki) was calculated using the Cheng-Prusoff equation: Ki=IC50/(1+[L]/Kd) where [L] is the concentration of ligand present in the well and Kd is the dissociation constant of the radioligand obtained from Scatchard plot analysis.

| Ki [nM] | Structure (SMILES) |
| --- | --- |
| 3.32 | Cc1cc(Cl)ccc1-n1c(C)nnc1C1CCN(c2ccccn2)CC1 [Example 9, 4-[4-(4-Chloro-2-methyl-phenyl)-5-methyl-4H-[1,2,4]triazol-3-yl]-3,4,5,6-tetrahydro-2H-[1,2′]bipyridinyl] |
| 0.47 | Clc1ccc(-n2c(Cn3nccn3)nnc2C2CCN(c3ccccn3)CC2)cc1 [Example 17, 4-[4-(4-Chloro-phenyl)-5-[1,2,3]triazol-2-ylmethyl-4H-[1,2,4]triazol-3-yl]-3,4,5,6-tetrahydro-2H-[1,2′]bipyridinyl] |
| 0.86 | Cc1cc(Cl)ccc1-n1c(Cn2nccn2)nnc1C1CCN(c2ccccn2)CC1 [Example 15, 4-[4-(4-Chloro-2-methyl-phenyl)-5-[1,2,3]triazol-2-ylmethyl-4H-[1,2,4]triazol-3-yl]-3,4,5,6-tetrahydro-2H-[1,2′]bipyridinyl] |
